Measured values reported in patent publication US20160264593A1 (priority 2013, published 2016).
Where “and” joins values, the source holds several entries; their conditions need not be identical. Equal entries are not always repeated.

Columns and labels:
[1] = system: PP2A; experiment: PP2A activity in mouse brains after IP dosing (PP2A immunoprecipitation phosphatase assay, malachite green); type: in vivo, Balb/c mice; design: Average Conc. (group of 3 mice): unit not given here; conditions: for Average Conc. (group of 3 mice) / Average Relative Activity (group, vehicle = 100) / Conc. (phosphate, single reading, per mouse) / Mean Conc. (per mouse) / Mean Conc. less IgG blank (per mouse) / Relative Conc. (per mouse, to vehicle) / Relative PP2A Activity (per mouse, vehicle = 100): brain
Experimental: (§1) Coomassie (Bradford) Protein Assay Kit (Pierce); PP2A Immunoprecipitation Phosphatase Assay Kit (Millipore); Lysate preparation for low endogenous phosphate: 20 mM imidazole-HCl, 2 mM EDTA, 2 mM EGTA, 1 mM PMSF, 1 mM benzamidine, 10 ug/ml each of aprotinin, leupeptin, antipain, soybean trypsin inhibitor; Normal Mouse IgG (Millipore); Okadaic acid (OA) (Tocris); DMSO (Sigma).
(§2) • Species: Mus Musculus • Strain: Balb/c mice • Age: 6-8 weeks • Sex: female • Body weight: 18-22 g • Vendor: Shanghai Laboratory Animal Center, Shanghai, China; • Number of animals: 66 Balb/c mice plus spare
(§3) The mice were kept in laminar flow rooms at constant temperature and humidity with 4 animals in each cage. • Temperature: 20-25 • Humidity: 40-70%. • Light cycle: 12 hours light and 12 hours dark. • Cages: Made of polycarbonate. The size is 29 cm×17.5 cm×12 cm (L×w×H). The bedding material is wood debris, which is changed once per week. • Diet: Animals had free access to irradiation sterilized dry granule food during the entire study period. • Water: Animals had free access to sterile drinking water. • Cage identification: the identification labels for each cage contained the following information: number of animals, sex, strain, date arrival, treatment, study number, group number, and the starting date of the treatment. • Animal identification: Animals were marked by ear punch.
(§4) All the procedures related to animal handling, care, and the treatment in this study were performed according to guidelines approved by the Institutional Animal Care and Use Committee (IACUC) of WuXi AppTec (Shanghai), following the guidance of the Association for Assessment and Accreditation of Laboratory Animal Care (AAALAC). At the time of routine monitoring, the animals were checked and recorded for any effects of tumor growth on normal behavior such as mobility, food and water consumption (by looking only), body weight gain/loss, eye/hair matting and any other abnormal effect.
(§5) 1. Proper amount of the compounds were weighed. 2. The compounds were dissolved in 4% sterile sodium bicarbonate. 3. All of the compounds should be well dissolved and clear. 4. The compounds should be kept cold once in solution and injected within an hour. 5. The mice were administered intraperitoneally according to their body weights, 20 g mouse was treated with 0.2 ml compound solution. 6. Mice were treated with vehicle and compounds according to Table 1. 7. 3 hours after the dose, 3 mice from each group were euthanized by
(§6) CO2 exposure, and the brains and left lobe of livers were taken and snap-frozen in liquid nitrogen immediately. 6 hours after the dose, the other 3 mice from each group were euthanized by CO2 exposure, and the brains and left lobe of livers were taken and snap-frozen in liquid nitrogen immediately.
(§7) Preparation of malachite green phosphate detection solution Added […] of Solution B to each 1 mL of Solution A, kept at room temperature during use. […] of mixed solution AB is used per assay well.
(§8) Diluted 125 mL Phosphate Standard (Solution C) with 1125 mL of distilled water to make 0.1 mM working solution. The solution was used to prepare a phosphate standard curve as described in the table below.
(§9) 1. 25 μL of each phosphate standards was transferred to wells of microliter plate. 2. Added 100 μL of Malachite Green Solution AB. Mixed carefully without creating bubbles. 3. Cultured for 15 minutes at RT. 4. Measured absorbance at a wavelength between 650 nm in a microliter plate reader.
(§10) 1. Dissolved 1 mg Threonine Phosphopeptide (Catalog #12-219) in 1.10 mL of distilled water to prepare a 1 mM solution. 2. Aliquot peptide solution and stored at ˜20° C. as necessary.
(§11) 1. Mouse brain or liver was homogenized using lysis buffer (25 g/L), centrifuged at 12000 g for 10 minutes at […], and the supernatants were collected. 2. The protein was quantitated, and 240 μg of mouse brain or liver lysate was taken to assay phosphatase activity. 3. […]

[2] = system: PP2A; experiment: PP2A activity in mouse livers after IP dosing (PP2A immunoprecipitation phosphatase assay, malachite green); type: in vivo, Balb/c mice; conditions: for Average Conc. (group of 3 mice) / Average Relative Activity (group, vehicle = 100) / Conc. (phosphate, single reading, per mouse) / Mean Conc. (per mouse) / Mean Conc. less IgG blank (per mouse) / Relative Conc. (per mouse, to vehicle) / Relative PP2A Activity (per mouse, vehicle = 100): liver
Experimental: as §1, §2, §3, §4, §5, §6, §7, §8, §9, §10, §11

[3] = high dose IP (mpk: 100 1.5, 113 2.2, 151 1.6, 153 1.7, 157 2.0), 3 h
[4] = high dose IP (mpk: 100 1.5, 113 2.2, 151 1.6, 153 1.7, 157 2.0), 6 h
[5] = low dose IP (mpk: 100 0.75, 113 1.1, 151 0.8, 153 0.85, 157 1.0), 3 h
[6] = low dose IP (mpk: 100 0.75, 113 1.1, 151 0.8, 153 0.85, 157 1.0), 6 h
[7] = high dose IP (mpk: 100 1.5, 113 2.2, 151 1.6, 157 2.0), 3 h
[8] = high dose IP (mpk: 100 1.5, 113 2.2, 151 1.6, 157 2.0), 6 h

CN1CCN(C(=O)C2C(C(=O)OCC(Cl)(Cl)Cl)[C@H]3CC[C@@H]2O3)CC1 (stereo partly shown) [Compound 113]
Average Conc. (group of 3 mice) [1, 3]: 892.56 | Average Relative Activity (group, vehicle = 100) [1, 3]: 60.76 | Conc. (phosphate, single reading, per mouse) [1, 3]: 1058.59 and 1029.91 and 726.72 and 714.92 and 925.07 and 938.33 | Mean Conc. (per mouse) [1, 3]: 1044.25 and 720.82 and 931.70 | Mean Conc. less IgG blank (per mouse) [1, 3]: 1037.88 and 714.45 and 925.33 | Relative Conc. (per mouse, to vehicle) [1, 3]: 0.71 and 0.49 and 0.64 | Relative PP2A Activity (per mouse, vehicle = 100) [1, 3]: 70.65 and 48.63 and 62.99 | Average Conc. (group of 3 mice) [1, 4]: 897.74 | Average Relative Activity (group, vehicle = 100) [1, 4]: 64.36 | Conc. (phosphate, single reading, per mouse) [1, 4]: 366.91 and 317.74 and 1221.50 and 1051.60 and 1382.49 and 1084.37 | Mean Conc. (per mouse) [1, 4]: 342.32 and 1136.55 and 1233.43 | Mean Conc. less IgG blank (per mouse) [1, 4]: 335.96 and 1130.19 and 1227.07 | Relative Conc. (per mouse, to vehicle) [1, 4]: 0.24 and 0.82 and 0.89 | Relative PP2A Activity (per mouse, vehicle = 100) [1, 4]: 24.09 and 81.03 and 87.97 | activity of PP2A in brains (statement) ([1]; high dose IP, 3 h): most potent | Average Conc. (group of 3 mice) [1, 5]: 1540.65 | Average Relative Activity (group, vehicle = 100) [1, 5]: 104.88 | Conc. (phosphate, single reading, per mouse) [1, 5]: 1602.05 and 1620.37 and 1450.70 and 1578.91 and 1521.79 and 1508.30 | Mean Conc. (per mouse) [1, 5]: 1611.21 and 1514.81 and 1515.05 | Mean Conc. less IgG blank (per mouse) [1, 5]: 1604.84 and 1508.44 and 1508.68 | Relative Conc. (per mouse, to vehicle) [1, 5]: 1.10 and 1.04 (2×) | Relative PP2A Activity (per mouse, vehicle = 100) [1, 5]: 109.24 and 102.68 and 102.70 | Average Conc. (group of 3 mice) [1, 6]: 1212.05 | Average Relative Activity (group, vehicle = 100) [1, 6]: 86.90 | Conc. (phosphate, single reading, per mouse) [1, 6]: 1379.36 and 1456.24 and 1108.96 and 1143.66 and 1072.56 and 1149.69 | Mean Conc. (per mouse) [1, 6]: 1417.80 and 1126.31 and 1111.12 | Mean Conc. less IgG blank (per mouse) [1, 6]: 1411.44 and 1119.94 and 1104.76 | Relative Conc. (per mouse, to vehicle) [1, 6]: 1.02 and 0.81 and 0.80 | Relative PP2A Activity (per mouse, vehicle = 100) [1, 6]: 101.19 and 80.29 and 79.21 | Average Conc. (group of 3 mice) [2, 7]: 138.31 | Average Relative Activity (group, vehicle = 100) [2, 7]: 35.3 | Conc. (phosphate, single reading, per mouse) [2, 7]: 200.67 and 204.55 and 192.25 and 216.22 and 155.1 and 163.31 | Mean Conc. (per mouse) [2, 7]: 202.61 and 204.23 and 159.21 | Mean Conc. less IgG blank (per mouse) [2, 7]: 152.24 and 153.86 and 108.83 | Relative Conc. (per mouse, to vehicle) [2, 7]: 0.39 (2×) and 0.28 | Relative PP2A Activity (per mouse, vehicle = 100) [2, 7]: 38.8 and 39.21 and 27.74 | Average Conc. (group of 3 mice) [2, 8]: 104.16 | Average Relative Activity (group, vehicle = 100) [2, 8]: 26.6 | Conc. (phosphate, single reading, per mouse) [2, 8]: 246.88 and 269.98 and 80.17 and 78.45 and 124.87 and 126.82 | Mean Conc. (per mouse) [2, 8]: 258.43 and 79.31 and 125.84 | Mean Conc. less IgG blank (per mouse) [2, 8]: 208.06 and 28.94 and 75.47 | Relative Conc. (per mouse, to vehicle) [2, 8]: 0.53 and 0.07 and 0.19 | Relative PP2A Activity (per mouse, vehicle = 100) [2, 8]: 53.13 and 7.39 and 19.27 | activity of PP2A in livers as compared with vehicle (statement) ([2]; high dose IP, 3 h): significantly inhibited | activity of PP2A in livers as compared with vehicle (statement) ([2]; high dose IP, 6 h post treatment): significantly inhibited | Average Conc. (group of 3 mice) [2, 5]: 179.91 | Average Relative Activity (group, vehicle = 100) [2, 5]: 45.9 | Conc. (phosphate, single reading, per mouse) [2, 5]: 258.54 and 266.31 and 211.9 and 190.3 and 226.36 and 228.31 | Mean Conc. (per mouse) [2, 5]: 262.43 and 201.1 and 227.34 | Mean Conc. less IgG blank (per mouse) [2, 5]: 212.05 and 150.73 and 176.96 | Relative Conc. (per mouse, to vehicle) [2, 5]: 0.54 and 0.38 and 0.45 | Relative PP2A Activity (per mouse, vehicle = 100) [2, 5]: 54.04 and 38.41 and 45.1 | Average Conc. (group of 3 mice) [2, 6]: 212.74 | Average Relative Activity (group, vehicle = 100) [2, 6]: 54.3 | Conc. (phosphate, single reading, per mouse) [2, 6]: 229.82 and 254.44 and 279.7 and 291.58 and 266.31 and 256.81 | Mean Conc. (per mouse) [2, 6]: 242.13 and 285.64 and 261.56 | Mean Conc. less IgG blank (per mouse) [2, 6]: 191.76 and 235.27 and 211.19 | Relative Conc. (per mouse, to vehicle) [2, 6]: 0.49 and 0.6 and 0.54 | Relative PP2A Activity (per mouse, vehicle = 100) [2, 6]: 48.97 and 60.08 and 53.93 | activity of PP2A in livers as compared with vehicle (statement) ([2]; low dose IP, 3 h): significantly inhibited | activity of PP2A in livers as compared with vehicle (statement) ([2]; low dose IP, 6 h): significantly inhibited
